According to US6818646B2 (priority 2000, dated 2004):

Assays:
[1] = target: T1, PDEV (Homo sapiens, UniProt O76074); assay: PDE assay: inhibition of PDEV isolated from human tissue; type: biochemical; details: for IC50: PDEV inhibitory activity
T1 construct: PDEV was isolated from rabbit and human tissues according to the protocol described by Boolell et al; from tissue; host or cells: human tissue, homogenate supernatant fractionated on Mono Q
Experimental: (§1) Briefly, rabbit or human tissues were homogenized in an ice-cold buffer solution containing 20 mM HEPES (pH 7.2), 0.25M sucrose, 1 mM EDTA, and 1 mM phenylmethylsulphonyl fluoride (PMSF). The homogenates were centrifuged at 100,000 g for 60 minutes at 4° C. The supernatant was filtered through […] filter and loaded on a Pharmacia Mono Q anion exchange column (1 ml bed volume) that was equilibrated with 20 mM HEPES, 1 mM EDTA and 0.5 mM PMSF. After washing out unbound proteins, the enzymes were eluted with a linear gradient of 100-600 mM NaCl in the same buffer (35 to 50 ml total, depending on the tissue. Enzymes from the skeletal muscle, corpus cavernosum, retina, heart and platelet were eluted with 35, 40, 45, 50, and 50 ml respectively.) The column was run at a flow rate of 1 ml/min and 1 ml fractions were collected. The fractions comprising various PDE activities were pooled separately and used in later studies.
(§2) The assays were adapted to a 96-well format. The enzyme was assayed in 5 mM MgCl2, 15 mM Tris HCl (pH 7.4), 0.5 mg/ml bovine serum albumin, 1 μM cGMP or cAMP, 0.1 μCi [^3H]-cGMP or [^3H]-cAMP, and 2-10 μl of column elution. The total volume of the assay was 100 μl. The reaction mixture was incubated at 30° C. for 30 minutes. The reaction was stopped by boiling for 1 minute and then cooled down on ice. The resulting [^3H]5′-mononucleotides were further converted to uncharged [^3H]-nucleosides by adding 25 μl 1 mg/ml snake venom (Ophiophagus hannah) and incubating at 30° C. for 10 minute. The reaction was stopped by the addition of 1 ml Bio-Rad AG1-X2 resin slurry (1:3). All the charged nucleotides were bound by the resin and only uncharged [^3H]-nucleosides remained in the supernatant after centrifuging. An aliquot of 200 μl was taken and counted by liquid scintillation. PDE activity was expressed as pmol cyclic nucleotide hydrolyzed/min/ml of enzyme preparation.
(§3) Inhibitor studies were carried out in assay buffer with a final concentration of 10% DMSO.
(§4) The % inhibition of the maximum substrate conversion (by the enzyme in the absence of inhibitor) was calculated for each test compound concentration. Using GraphPad Prism's nonlinear regression analysis (sigmoidal dose response), the % inhibition vs log of the test compound concentration was plotted to determine the IC50. Under conditions where substrate concentration <<Km of the enzyme (Km=substrate concentration at which half of the maximal velocity of the enzyme is achieved), Ki is equivalent to the IC50 value.
(§5) Unless otherwise noted, PDEV inhibitory activities were measured using human tissue. The abbreviation “stereo” refers to the stereogenic configuration, the abbreviation “Rac” shall denote a racemic mixture.

[2] = target: PDEV (Oryctolagus cuniculus, UniProt G1SX67); assay: PDE assay: inhibition of PDEV isolated from rabbit tissue; type: biochemical; details: PDEV inhibitory activity, rabbit tissue (footnote a)
Experimental: as §1, §2, §3, §4, §5

[3] = In vivo testing for efficacy, procedure of Carter et al.
Experimental: Following the procedure disclosed by Carter et al., (Carter, A. J., Ballard, S. A., and Naylor, A. M.) in The Journal of Urology 1998, 160, 242-246, the compounds as listed in Table 7 were tested for in vivo efficacy, with results as tabulated below.

[4] = target: T1, PDEV; assay: In vitro determination of Ki for phosphodiesterase inhibitors; type: biochemical; details: human tissue; given as 'Ki ='
Experimental: The assays were adapted to a 96-well format. Phosphodiesterase was assayed in 5 mM MgCl2, 15 mM Tris HCl (pH 7.4), 0.5 mg/ml bovine serum albumin, 30 nM ^3H-cGMP and test compound at various concentrations. The amount of enzyme used for each reaction was such that less than 15% of the initial substrate was converted during the assay period. For all measurements, the test compound was dissolved and diluted in 100% DMSO (2% DMSO in assay). The total volume of the assay was 100 μl. The reaction mixture was incubated at 30° C. for 90 minutes. The reaction was stopped by boiling for 1 minute and then immediately cooled by transfer to an ice bath. To each well was then added 25 μl 1 mg/ml snake venom (Ophiophagus hannah) and the reaction mixture incubating at 30° C. for 10 minute. The reaction was stopped by the addition of 1 ml Bio-Rad AG1-X2 resin slurry (1:3). An aliquot of 200 μl was taken and counted by liquid scintillation.
as §4, §5

Compound | melting point | IC50 [1] | Efficacy [3] | further results
COc1ccc(-c2cnc(N3Cc4c([nH]c5ccccc5c4=O)C3c3ccc4c(c3)OCO4)nc2)cc1 (racemic) [Compound 2, 1,2,3,4-Tetrahydro-2-[5-(4-methoxyphenyl)-pyrimidin-2-yl]-3-(3,4-methylene-dioxyphenyl)-9H-pyrrolo-[3,4-b]quinolin-9-one] | 325 to 327 °C | 0.191 nM |  | 
COc1ccc(C2NCc3c2[nH]c2ccccc2c3=O)cc1OC (racemic) [Compound 12, 1,2,3,4-Tetrahydro-3-(3,4-dimethoxyphenyl)-9H-pyrrolo-[3,4-b]quinolin-9-one] | 223 to 225 °C |  |  | IC50 [2]: 549 nM
O=c1c2c([nH]c3ccccc13)C(c1ccc3c(c1)OCO3)N(C(=S)n1ccnc1)C2 (racemic) [Compound 18, 1,2,3,4-Tetrahydro-2-(imidazol-1-yl)thiocarbonyl-3-(3,4-methylenedioxyphenyl)-9H-pyrrolo-[3,4-b]quinolin-9-one] | 211 to 215 °C (dec.) |  |  | inhibition at 10 µM ([1]; 10 μM test compound): 54%
Cl.O=C(OCc1ccncc1)N1Cc2c([nH]c3ccccc3c2=O)C1c1ccc2c(c1)OCO2 (racemic) [Compound 37, 1,2,3,4-Tetrahydro-2-[(4-pyridinyl)methyloxycarbonyl]-3-(3,4-methylenedioxyphenyl)-9H-pyrrolo-[3,4-b]quinolin-9-one, hydrochloride salt] |  | 5.72 nM | Active | 
COc1ccc(-c2cnc(N3Cc4c([nH]c5ccccc5c4=O)[C@H]3c3ccc4c(c3)OCO4)nc2)cc1OC [Compound 36, (R)-1,2,3,4-Tetrahydro-2-[5-(3,4-dimethoxyphenyl)-pyrimidin-2-yl]-3-(3,4-methylenedioxyphenyl)-9H-pyrrolo-[3,4-b]quinolin-9-one] |  | 0.075 nM | Active | 
O=c1c2c([nH]c3ccccc13)[C@@H](c1ccc3c(c1)CCO3)N(c1ncc(-c3ccccn3)cn1)C2 [Compound 65, (R)-1,2,3,4-Tetrahydro-2-[5-(2-pyridinyl)-pyrimidin-2-yl]-3-(2,3-dihydrobenzofuranyl)-9H-pyrrolo-[3,4-b]quinolin-9-one] |  | 0.23 nM | Active | 
COc1ccc(-c2cnc(N3Cc4c([nH]c5ccccc5c4=O)[C@H]3c3ccc4c(c3)CCO4)nc2)cc1 [Compound 66, (R)-1,2,3,4-Tetrahydro-2-[5-(4-methoxyphenyl)-pyrimidin-2-yl]-3-(2,4-dihydrobenzofuranyl)-9H-pyrrolo-[3,4-b]quinolin-9-one] |  | 0.19 nM | Active | 
O=c1c2c([nH]c3ccccc13)C(c1ccc3c(c1)CCO3)N(c1ccccn1)C2 (stereo not drawn) [Compound 136, 3-(2,3-Dihydro-benzofuran-5-yl)-2-pyridin-2-yl-1,2,3,4-tetrahydro-pyrrolo[3,4-b]quinolin-9-one] |  |  |  | Ki [4]: 0.18 nM
